# Laboratory results as given in patent US11826466B2, “Bendamustine solution formulations” (Navinta, LLC, priority 2016, dated 2023).
# Where a name gives a salt, the structure may show the parent alone.
# Key:
# [1] = Solubility of Bendamustine Hydrochloride in DMA-Water Mixture; assay type: physicochemical; settings: organic solvent or mixture, thermodynamic from solid, 5° C.
# Description: To 10 ml of DMA-water mixture, excess (˜2-3 g) of Bendamustine Hydrochloride hydrate was added and the mixture was stirred for 24 hr while keeping in a constant temperature bath. After 24 hr, the mixture was centrifuged to remove the undissolved solid and the supernatant was filtered through a 0.2 micron filter. The clear filtrate was assayed.
# [2] = Solubility of Bendamustine Hydrochloride in DMA
# [3] = room temperature; reported in U.S. Pat. No. 8,344,006; cited from earlier work
Structure (SMILES),solubility at 24 h ([1]; DMA:Water 60:40) [mg/mL],solubility at 24 h ([1]; DMA:Water 80:20) [mg/mL],solubility at 24 h ([1]; DMA:Water 90:10) [mg/mL],solubility at 24 h ([1]; DMA:Water 95:5) [mg/mL],solubility at 24 h ([1]; DMA:Water 97:3) [mg/mL],solubility at 24 h ([1]; DMA) [mg/mL],concentration of solutions in DMA made by adding water to DMA ([2]; DMA with added water),"solubility ([2]; DMA, 2 °C, organic solvent or mixture) [mg/mL]",solubility in DMA [3]
Cn1c(CCCC(=O)O)nc2cc(N(CCCl)CCCl)ccc21 [Bendamustine Hydrochloride hydrate],67,169,201,114,116,72,up to 200 mg/mL,~65,
Cn1c(CCCC(=O)O)nc2cc(N(CCCl)CCCl)ccc21 [Bendamustine Hydrochloride],,,,,,,,,about 56 mg/mL
